A short description of series [1]: Absorbance and emission spectra in aqueous buffer with Triton X-100. It counts as physicochemical. As to conditions: 5 mM sodium phosphate, pH 9, 0.1% Triton X-100. On the procedure:
FIG. 8A, FIG. 8B, and FIG. 8C show the normalized absorbance and emission spectra for exemplary compounds of the invention in 5 mM sodium phosphate, pH 9 with 0.1% Triton X-100. Black lines are absorbance spectra; grey lines are emission spectra. a) VF1.4.Cl, b) VF2.4.Cl, and c) VF2.1.Cl.
All dyes feature emission and excitation profiles typical of dichlorofluoresceins (VF1.4.Cl: λmax=521 nm, ε=93,000 M^−1·cm^−1, λem=534 nm, Φ=0.24; VF2.4.Cl: λmax=522 nm, ε=97,000 M^−1·cm^−1, λem=536 nm, Φ=0.054; VF2.1.Cl: λmax=522 nm, ε=98 000 M^−1·cm^−1, λcm=535 nm, Φ=0.057, 5 mM sodium phosphate, pH 9, 0.1% Triton X-100) (FIG. 8).
(§1) UV absorbance and fluorescence spectra were recorded on a Cary 3E (Varian) and Fluorolog 2 (Spex) fluorimeter, respectively. Analytical, semi-preparative, and preparative HPLCs were performed on Agilent HPLCs, with Luna C18(2) columns (Phenomenex) using water (solvent A) and acetonitrile (solvent B) with 0.05% TFA as an additive. Low resolution ESI mass spectrometry was performed on an Agilent LC/MSD Trap XCT coupled to an Agilent HPLC. High resolution mass spectra were acquired on a ThermoFisher Orbitrap XL hybrid mass spectrometer. ^1H NMR spectra were collected in CDCl3 or d6-DMSO (Cambridge Isotope Laboratories, Cambridge, Mass.) at 25° C. on a 400 Varian Mercury Plus or Jeol ECA 500 spectrometer at the Department of Chemistry and Biochemistry NMR Facility at the University of California, San Diego. All chemical shifts are reported in the standard δ notation of parts per million using the peak of residual proton signals of CDCl3 or d6-DMSO as an internal reference.

The next series deals with leech Retzius cells. The series can be described thus: Capacitative loading in leech Retzius cells. It is filed as cell-based, Hirudo medicinalis. The settings on record: hyperpolarizing current injection, dye at three times the working concentration. From the text:
We injected hyperpolarizing current into the Retzius cells of leech ganglia preparations and compared the time constants for these voltage steps in ganglia under different dye loading conditions. The ganglia were stained with dye at three times the working concentration [either VF2.1.Cl or diSBA-C4-(3) (14)] and compared with unloaded cells.
Isolated midbody ganglia (Ganglia 8-16) were dissected from Hirudo medicinalis and the ventral side was desheathed using standard procedures. The voltage sensitive dye was combined with HEPES saline down to the desired concentration (100-300 nM), and 1.5 μL of a 20% (w/v) solution of Pluronic F-127 in DMSO. The dye was then continuously pumped over the ganglion to help with penetration into the cell membranes for 20-30 minutes. […]
Electrophysiological measurements were made with paired electrode recordings with resistances in the range of 20-40 MΩm. Electrode 1 acted as the recording electrode, which constantly monitored membrane potential, and electrode 2 acted as the current injecting electrode. […] The capacitance C was calculated with the formula C=tau*I/ΔV, where I=1 nA and the hyperpolarization ΔV was 15-18 mV. Tau was measured two ways: 1) the time required for the normalized curve to reach (1-1/e); 2) the time constant of the best fit exponential or sum of exponentials. […] Spontaneous Retzius cell activity was measured with a single electrode.

The nature of series [2]: Absorbance and emission spectra in n-octanol. It counts as physicochemical. On the procedure:
VF2.4.Cl features an absorbance spectrum with a λmax in octanol (to simulate cellular membranes) centered at 527 nm (ε527=4×10^4 M^−1 cm^−1). Excitation of VF2.4.Cl at 527 nm results in emission centered at 540 nm (Φ=0.23) (FIG. 3).
as §1

The values below come from US11187660B2, “Fluorescent probes for monitoring voltage by photo-induced electron transfer” (The Regents of the University of California, priority 2011, dated 2021).

Regarding `CN(C)c1ccc(/C=C/c2ccc(/C=C/c3ccc(-c4c5cc(Cl)c(=O)cc-5oc5cc(O)c(Cl)cc45)c(S(=O)(=O)O)c3)cc2)cc1` [VF2.1.Cl, 5-(4-(4-(dimethyllamino)styryl)styryl)-2-(2,7-dichloro-6-hydroxy-3-oxo-3H-xanthen-9-yl)benzenesulfonic acid], in series [1], the Φ turned out to be 0.057, the ε is 98 000 M^−1·cm^−1, the λem was 535 nm and the λmax is 522 nm. In addition, the “capacitative load on the membrane” value with leech Retzius cells was “no difference from control cells”.

Consider `CCCCN(CCCC)c1ccc(/C=C/c2ccc(/C=C/c3ccc(-c4c5cc(Cl)c(=O)cc-5oc5cc(O)c(Cl)cc45)c(S(=O)(=O)O)c3)cc2)cc1` [VF2.4.Cl, 5-(4-(4-(dibutylamino)styryl)styryl)-2-(2,7-dichloro-6-hydroxy-3-oxo-3H-xanthen-9-yl)benzenesulfonic acid], for which, in series [1], the Φ is given as 0.054, the ε was 97,000 M^−1·cm^−1, the λem was found to be 536 nm and the λmax is reported as 522 nm. In series [2], the “absorbance λmax” value worked out at 527 nm, the Φ is reported as 0.23 and the ε527 was found to be 40000 M⁻¹ cm⁻¹. Further, in series [2] (excitation at 527 nm), the emission centered at is 540 nm.
